ChEMBL document CHEMBL3792282, “Cinnamic acid amides from Tribulus terrestris displaying uncompetitive α-glucosidase inhibition” (Eur J Med Chem, 2016)
Activity calls are given as the source filed them. No cut-off for these calls is given here.

What was measured:
[1] = target: T1, Beta-glucosidase (Homo sapiens) (UniProt Q9HCG7); assay: Inhibition of beta-glucosidase (unknown origin) up to 200 uM
T1 sequence (whole entry): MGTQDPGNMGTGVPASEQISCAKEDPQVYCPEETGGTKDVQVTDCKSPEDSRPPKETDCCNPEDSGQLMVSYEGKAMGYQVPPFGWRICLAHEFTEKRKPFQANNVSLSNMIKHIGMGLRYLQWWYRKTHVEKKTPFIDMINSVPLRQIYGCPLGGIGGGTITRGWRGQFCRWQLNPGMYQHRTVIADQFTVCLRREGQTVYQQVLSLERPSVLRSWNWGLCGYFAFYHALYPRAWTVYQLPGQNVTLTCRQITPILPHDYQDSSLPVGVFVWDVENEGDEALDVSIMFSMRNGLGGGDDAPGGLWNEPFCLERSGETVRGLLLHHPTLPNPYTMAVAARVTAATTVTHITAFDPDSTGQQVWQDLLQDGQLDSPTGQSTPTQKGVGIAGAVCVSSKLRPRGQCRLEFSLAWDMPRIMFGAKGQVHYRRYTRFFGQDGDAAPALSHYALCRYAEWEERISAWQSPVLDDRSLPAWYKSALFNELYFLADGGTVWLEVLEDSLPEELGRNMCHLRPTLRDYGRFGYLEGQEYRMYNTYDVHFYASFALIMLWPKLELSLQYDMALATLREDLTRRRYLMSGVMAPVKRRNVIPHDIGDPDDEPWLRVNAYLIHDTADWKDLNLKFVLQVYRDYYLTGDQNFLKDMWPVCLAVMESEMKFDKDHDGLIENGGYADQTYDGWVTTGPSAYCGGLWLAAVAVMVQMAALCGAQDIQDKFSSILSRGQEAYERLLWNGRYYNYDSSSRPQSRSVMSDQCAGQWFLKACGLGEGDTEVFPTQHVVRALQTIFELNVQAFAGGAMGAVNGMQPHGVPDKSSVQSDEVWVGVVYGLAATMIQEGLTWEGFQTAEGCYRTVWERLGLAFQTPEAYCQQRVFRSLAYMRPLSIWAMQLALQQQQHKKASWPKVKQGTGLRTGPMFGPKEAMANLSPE

[2] = (§1) Inhibition of baker's yeast alpha-glucosidase using pNPG as substrate by spectrophotometry; design: species or system Saccharomyces cerevisiae
Saccharomyces cerevisiae [3] = assay: as §1
[4] = Uncompetitive inhibition of baker's yeast alpha-glucosidase using pNPG as substrate by Cornish-Bowden plot analysis; design: species or system Saccharomyces cerevisiae
Homo sapiens [5] = species: Homo sapiens; assay: Inhibition of alpha-galactosidase (unknown origin) up to 200 uM
Homo sapiens [6] = species: Homo sapiens; assay: Inhibition of alpha-mannosidase (unknown origin) up to 200 uM
[7] = target: Alpha amylase (Homo sapiens) (UniProt P0DUB6); assay: Inhibition of alpha-amylase (unknown origin) up to 200 uM
Alpha amylase (Homo sapiens), sequence (P0DUB6 whole entry, looked up): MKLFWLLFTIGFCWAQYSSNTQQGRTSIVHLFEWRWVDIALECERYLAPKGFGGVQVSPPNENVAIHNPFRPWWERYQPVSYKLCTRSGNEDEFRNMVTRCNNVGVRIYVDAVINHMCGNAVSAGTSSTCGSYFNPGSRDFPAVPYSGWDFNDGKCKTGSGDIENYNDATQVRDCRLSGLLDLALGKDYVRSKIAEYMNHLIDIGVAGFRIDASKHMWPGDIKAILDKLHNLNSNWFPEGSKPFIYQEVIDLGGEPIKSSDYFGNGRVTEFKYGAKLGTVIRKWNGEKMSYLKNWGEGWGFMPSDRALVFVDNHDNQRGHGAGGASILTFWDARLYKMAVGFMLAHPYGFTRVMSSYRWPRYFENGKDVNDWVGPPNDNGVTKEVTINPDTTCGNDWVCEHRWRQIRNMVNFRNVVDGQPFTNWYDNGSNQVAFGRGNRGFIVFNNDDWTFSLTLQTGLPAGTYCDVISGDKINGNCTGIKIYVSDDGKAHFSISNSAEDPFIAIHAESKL

Saccharomyces cerevisiae [8] = assay: Uncompetitive inhibition of baker's yeast alpha-glucosidase using pNPG as substrate assessed as ratio of Kik to Kiv at 0.39 uM by Lineweaver-Burk plot analysis
Saccharomyces cerevisiae [9] = assay: Uncompetitive inhibition of baker's yeast alpha-glucosidase using pNPG as substrate assessed as ratio of Kik to Kiv at 0.19 uM by Lineweaver-Burk plot analysis
Saccharomyces cerevisiae [10] = assay: Uncompetitive inhibition of baker's yeast alpha-glucosidase using pNPG as substrate assessed as ratio of Kik to Kiv at 0.78 uM by Lineweaver-Burk plot analysis
Saccharomyces cerevisiae [11] = assay: Uncompetitive inhibition of baker's yeast alpha-glucosidase using pNPG as substrate assessed as ratio of Kik to Kiv at 1.56 uM by Lineweaver-Burk plot analysis

Structure (SMILES) | inhibition [1] | IC50 [2] | inhibition (Saccharomyces cerevisiae [3]) | Ki [4] | inhibition (Homo sapiens [5]) | inhibition (Homo sapiens [6]) | inhibition [7] | Ratio (Saccharomyces cerevisiae [8]) | Ratio (Saccharomyces cerevisiae [9]) | Ratio (Saccharomyces cerevisiae [10]) | Ratio (Saccharomyces cerevisiae [11])
O=C(CCc1ccc(O)cc1)NCCc1ccc(O)cc1 | – | 19 µM | – | 18.2 µM | – | – | – | – | – | – | –
COc1cc(/C=C/C(=O)NC(O)C(=O)c2ccc(O)cc2)ccc1O (centres undefined) | inactive | 226 µM | Dose-dependent effect | – | inactive | inactive | inactive | – | – | – | –
O=C(/C=C/c1ccc(O)cc1)NCCc1ccccc1 | – | 0.31 µM | – | 0.29 µM | – | – | – | – | – | – | –
COc1cc(/C=C/C(=O)NCC(O)c2ccc(O)cc2)ccc1O (centres undefined) | inactive | 188 µM | Dose-dependent effect | – | inactive | inactive | inactive | – | – | – | –
COc1cc(/C=C/C(=O)NCC(=O)c2ccc(O)cc2)ccc1O | inactive | 61.5 µM | Dose-dependent effect | 62.1 µM | inactive | inactive | inactive | – | – | – | –
O=C(/C=C/c1ccccc1)NCCc1ccc(O)cc1 | – | 215 µM | – | – | – | – | – | – | – | – | –

Second part, the compound after the results:

inhibition [1] | IC50 [2] | inhibition (Saccharomyces cerevisiae [3]) | Ki [4] | inhibition (Homo sapiens [5]) | inhibition (Homo sapiens [6]) | inhibition [7] | Ratio (Saccharomyces cerevisiae [8]) | Ratio (Saccharomyces cerevisiae [9]) | Ratio (Saccharomyces cerevisiae [10]) | Ratio (Saccharomyces cerevisiae [11]) | Structure (SMILES)
inactive | 0.42 µM | Dose-dependent effect | 0.35 µM | inactive | inactive | inactive | 1.04 | 1.03 | 1.05 | 1.03 | O=C(/C=C/c1ccc(O)cc1)NCCc1ccc(O)cc1 [N-P-COUMAROYL TYRAMINE]
– | 1.63 µM | – | 1.74 µM | – | – | – | – | – | – | – | O=C(/C=C/c1ccc(O)cc1)NCCc1ccc(O)c(O)c1
inactive | 10.6 µM | Dose-dependent effect | 11.3 µM | inactive | inactive | inactive | – | – | – | – | COc1cc(/C=C/C(=O)NCCc2ccc(O)cc2)ccc1O [N-TRANS-FERULOYL TYRAMINE]
inactive | 1.86 µM | Dose-dependent effect | 1.77 µM | inactive | inactive | inactive | – | – | – | – | O=C(/C=C/c1ccc(O)c(O)c1)NCCc1ccc(O)cc1
– | 1.22 µM | – | 1.38 µM | – | – | – | – | – | – | – | O=C(/C=C/c1ccc(O)cc1)NCCc1ccc(F)cc1
